Measured values published in the NIST ThermoML archive (doi:10.1021/je700404u).
Numbers after ± are expanded uncertainties.

How the values were obtained:
[1] = refractive index (Na D-line) (dimensionless); conditions: 293.15 K; 101.33 kPa; Liquid; Standard Abbe refractometry
[2] = 293.15 K; 101.33 kPa; Liquid

| SMILES | refractive index [1] | mass density [2] [kg/m3] |
| --- | --- | --- |
| CCOCCO [2-ethoxyethan-1-ol] | 1.4065 ± 0.0007 | 929 ± 1 |
| CC(C)=O [acetone] | 1.359 ± 0.0007 | 790 ± 1 |
| CCO [ethanol] | 1.3619 ± 0.0007 | 789 ± 1 |
| CO [methanol] | 1.3287 ± 0.0007 | 791 ± 1 |
